From patent US20240417428A1, “POLYPEPTIDE FOR INHIBITING TRPM8 AND USE THEREOF” (ZHEJIANG UNIVERSITY, priority 2021, published 2024)
Where a SMILES comes first, the peptide text is derived from it.

What was measured:
TRPM8 = TRPM8 (Mus musculus, UniProt Q8R4D5); assay: Inside-out single-channel recording of menthol-activated TRPM8 at +80 mV; type: cell-based; parameters: expressed in transfected cells; host or cells: HEK293T
Procedure: HEK293T cells were cultured in Dulbecco's modified Eagle culture medium under a 37° C., 5% CO2 environment, 10% fetal bovine serum, penicillin (100 U/mL), and streptomycin ([…]) was needed to add into the culture medium. Transient transfection was conducted by using Lipo 2000 (Invitrogen) transfection kit and following the instruction manual.
Electrophysiological experiment recordings were performed on the cells within 24˜48 h of transient transfections. Specifically, single channel electrophysiological recordings were performed within 8 h after transfection.
Measurement of the cell currents was respectively performed in the whole-cell recording mode, inside-out recording mode or outside-out recording mode with a HEKA EPC10 amplifier. In the whole cell electrophysiological recordings, glass microelectrodes made of borosilicate material were fire-polished to a original electrode resistance of about 3-6 MΩ. Serial resistance was compensated by 60%. The whole cell electrophysiological recordings were performed at ±80 mV. For single channel electrophysiological recordings, glass microelectrodes were fire-polished to a higher resistance of 6-8 MΩ2. Current signal was sampled at 10 kHz and filtered at 2.9 kHz. Membrane potential of the cell membrane would be clamped at +80 mV. All electrophysiological recordings were performed at room temperature (22° C.) (the maximum variation is 1° C.).
There were different bath and pipette solutions prepared for different ion channels current measurement. For ion channels such as TRPM8, TRPV1, TRPV2, TRPV3 and TRPA1, the formula of the bath and pipette solutions was: 130 mM NaCl, 0.2 mM EDTA and 3 mM HEPES, pH=7.2. For the current measurement of TRPM4 ion channel, the formula of the bath solution was: 130 mM NaCl and 3 mM HEPES, pH=7.2, and the formula of the pipette solution was: 500 μM CaCl2), 130 mM NaCl and 3 mM HEPES, pH=7.2. For the current measurement of TRPM2 ion channel, the formula of the bath solution was: 147 mM NaCl, 2 mM KCl, 1 mM MgCl2, 10 mM HEPES, 2 mM CaCl2) 13 mM Glucose, pH=7.4, and the formula of the pipette solution was: 147 mM NaCl, 1 mM MgCl2, 10 mM HEPES, pH=7.4. For the current measurement of Nav1.5, Nav1.7 ion channels, the formula of the bath solution was: 140 mM NaCl, 3 mM KCl, 1 mM MgCl2, 1 mM CaCl2), 10 mM HEPES, pH=7.2 and the formula of the pipette solution was: 140 mM CsF, 1 mM EGTA, 10 mM NaCl, 10 mM MgCl2, 3 mM KCl, pH=7.2. To evoke sodium channel current, the membrane potential was increased from −80 mV to +10 mV.
A rapid solution changer with a gravity-driven perfusion system (RSC-200, BioLogic) was used to rapidly perfuse specific solutions into the cells to be tested. Each solution was delivered through a separate tube so that there is no mixing of solutions. The glass microelectrode with a membrane patch was placed directly below the outlet of the perfusion tube during the electrophysiology recordings.

[1] = Mice body temperature measurement; type: in vivo; conditions: 30 μg/g body weight i.v., up to 24 h
Procedure: A digital thermometer (FT3400) was used for body temperature measurement of mice. Adult CD1 male mice were placed into an environmental room maintained at a constant temperature of 22±1° C. Mice were injected with DeC-1.2 (30 mg/kg body weight) via the tail vein to assess the effect of DeC-1.2 on body temperature. Body temperature was measured before treatment (baseline, BL) and at 5 min, 15 min, 0.5, 1, 2, 6 and 24 hours following DeC-1.2 (30 mg/kg, i.v.) administration. The test probe of the thermometer was inserted into the anus of the mouse approximately 2 cm, and the body temperature was recorded after the temperature display value was stable.

TRPM8, sequence (Q8R4D5 whole entry): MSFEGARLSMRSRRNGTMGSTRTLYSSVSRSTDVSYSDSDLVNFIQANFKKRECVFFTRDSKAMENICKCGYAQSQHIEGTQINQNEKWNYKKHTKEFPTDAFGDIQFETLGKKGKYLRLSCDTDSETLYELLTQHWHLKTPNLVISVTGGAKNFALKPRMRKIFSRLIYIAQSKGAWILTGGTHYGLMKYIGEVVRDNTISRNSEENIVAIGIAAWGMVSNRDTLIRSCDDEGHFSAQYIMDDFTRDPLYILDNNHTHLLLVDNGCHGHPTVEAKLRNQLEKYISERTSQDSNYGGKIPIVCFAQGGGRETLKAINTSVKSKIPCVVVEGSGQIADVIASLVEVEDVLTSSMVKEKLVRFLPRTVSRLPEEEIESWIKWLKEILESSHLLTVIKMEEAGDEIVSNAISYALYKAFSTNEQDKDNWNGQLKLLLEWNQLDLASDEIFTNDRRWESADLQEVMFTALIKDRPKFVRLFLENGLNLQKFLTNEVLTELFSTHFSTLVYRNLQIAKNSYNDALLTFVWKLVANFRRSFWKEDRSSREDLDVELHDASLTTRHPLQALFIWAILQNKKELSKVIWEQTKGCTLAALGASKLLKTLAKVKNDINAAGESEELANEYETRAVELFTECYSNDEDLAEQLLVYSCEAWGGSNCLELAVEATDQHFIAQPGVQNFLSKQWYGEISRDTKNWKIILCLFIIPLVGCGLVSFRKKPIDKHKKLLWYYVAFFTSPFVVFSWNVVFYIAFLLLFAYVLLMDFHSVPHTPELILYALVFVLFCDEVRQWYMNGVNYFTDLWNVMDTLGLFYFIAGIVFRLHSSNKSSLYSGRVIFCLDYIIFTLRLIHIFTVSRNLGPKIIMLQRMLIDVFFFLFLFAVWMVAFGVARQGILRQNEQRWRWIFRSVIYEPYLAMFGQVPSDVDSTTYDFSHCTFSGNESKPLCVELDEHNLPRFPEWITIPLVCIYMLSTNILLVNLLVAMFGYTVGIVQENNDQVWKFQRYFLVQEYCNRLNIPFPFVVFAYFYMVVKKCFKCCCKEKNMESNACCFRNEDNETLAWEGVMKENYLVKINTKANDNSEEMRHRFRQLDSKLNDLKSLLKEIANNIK

## C[C@@H]1NC(=O)[C@H](CCCNC(=N)N)NC(=O)[C@H](CC(=O)O)NC(=O)[C@H](CCCNC(=N)N)NC(=O)[C@H](CCCNC(=N)N)NC(=O)[C@@H](N)CSSC[C@@H](C(=O)O)NC(=O)[C@H](CCCNC(=N)N)NC(=O)[C@H](CCC(N)=O)NC(=O)[C@H](CCCNC(=N)N)NC(=O)[C@H](Cc2ccc(O)cc2)NC(=O)[C@H](Cc2c[nH]cn2)NC(=O)[C@H](CCCNC(=N)N)NC1=O [DeC-1.2, CRRDRARHYRQRC] (HELM PEPTIDE1{C.R.R.D.R.A.R.H.Y.R.Q.R.C}$PEPTIDE1,PEPTIDE1,1:R3-13:R3$$$V2.0; N-terminus and C-terminus assumed)
TRPM8; DeC-1.2 100 μM with saturated menthol (1 mM), n=5
  open probability of TRPM8: 18.83±1.92%
TRPM8; DeC-1.2 100 μM, menthol 1 mM
  change of single-channel conductance of menthol-activated TRPM8: decreases significantly
TRPM8; DeC-1.2 100 μM, menthol 1 mM, P<0.0001
  change of open probability of menthol-activated TRPM8: decreases significantly
[1]
  effect on body temperature: did not significantly alter body temperature
